Experimental findings from patent publication US20190241569A1, “3-(ARYL OR HETEROARYL) METHYLENEINDOLIN-2-ONE DERIVATIVES AS INHIBITORS OF CANCER STEM CELL PATHWAY KINASES FOR THE TREATMENT OF CANCER” (Boston Biomedical, Inc., priority 2013, published 2019) are described below.

What all share (type): cell-based
One assay deals with FaDu CSC. Description: Cancer stem cells, Cell Titer-Glo 72 hours (Test Example 3). Conditions: Homo sapiens, FaDu, 72 h.
Another assay has as its system FaDu. Description: Bulk cancer cells, Cell Titer-Glo 72 hours (Test Example 2). Conditions: Homo sapiens. On the procedure:
(§1) Tubes of 3× drug (60 uM in 500 uL complete media) were prepared from 5 mM stock solutions in DMSO. […] To treat cells, 50 uL of drug from the dilution plate was removed and added to the cell plates. […] Cells were harvested 72 hours after drug addition using Cell Titer-Glo (Promega) and luminescence measured on a plate reader.

Another assay relates to ACHN. The description is as above. Particulars: Homo sapiens, ACHN, 72 h. On the procedure:
as §1

For another assay, the system named is A549. The description is as above. Conditions: Homo sapiens. The method, then: as §1

Broadly, the IC50 is the concentration that gives 50% inhibition. A higher IC50 goes with weaker potency in that assay. Take `Cc1[nH]c(/C=C2\C(=O)Nc3ccc(-c4cnn(-c5ccccc5)c4C)cc32)c(C)c1C(=O)N1CCN(C)CC1` [Example 5]: in the assay with FaDu CSC, inhibition was half-maximal at 14.8 µM (IC50).

As to `CCN(CC)CCNC(=O)c1c(C)[nH]c(/C=C2\C(=O)Nc3ccc(C4CCN(C5CCOCC5)CC4)cc32)c1C` [Example 12], the IC50 in the assay with FaDu came to 23.9 µM. In other words, the double-digit micromolar range.

For `Cc1[nH]c(/C=C2\C(=O)Nc3ccc(-c4cnn(-c5ccccc5)c4C)cc32)c(C)c1C(=O)N1CCOCC1` [Example 13], the IC50 in the assay with FaDu worked out at 6.76 µM; in the assay on FaDu CSC, 37.2 µM.

As for `Cc1[nH]c(/C=C2\C(=O)Nc3ccc(-c4ccc(-c5ccccc5)s4)cc32)c(C)c1C(=O)NCCN1CCCC1` [Example 14], the IC50 was 4.44 µM in the assay with FaDu and 1.64 µM in the assay with FaDu CSC.

As for `CCN(CC)CCNC(=O)c1c(C)[nH]c(/C=C2\C(=O)Nc3ccc(-c4cnc(-c5ccccc5)o4)cc32)c1C` [Example 17], the IC50 with ACHN stood at 12.2 µM; in the assay with FaDu it was 9.73 µM; with FaDu CSC, 41.5 µM.

`Cc1[nH]c(/C=C2\C(=O)Nc3ccc(-c4cnc(-c5ccccc5)o4)cc32)c(C)c1C(=O)N1CCN(C)CC1` [Example 18]: the IC50 with FaDu was determined as 12.1 µM; in the assay on FaDu CSC, 9.35 µM.

In turn, `Cc1[nH]c(/C=C2\C(=O)Nc3ccc(-c4ncc(-c5ccccc5)o4)cc32)c(C)c1C(=O)N1CCN(C)CC1` [Example 20] displayed an IC50 with FaDu CSC of 2.38 µM. This counts as single-digit micromolar.

`Cc1[nH]c(/C=C2\C(=O)Nc3ccc(-c4ccnn4-c4ccccc4)cc32)c(C)c1C(=O)N1CCN(C)CC1` [Example 23]: the half-maximal inhibitory concentration (IC50) stood at 4.55 µM in the assay with FaDu and 11.5 µM in the assay with FaDu CSC.

For the compound `Cc1[nH]c(/C=C2\C(=O)Nc3ccc(-c4ccnn4-c4ccc(C#N)cc4)cc32)c(C)c1C(=O)N1CCN(C)CC1` [Example 24], the IC50 in the assay on FaDu CSC came out at 48.2 µM.

Consider `CCN(CC)CCNC(=O)c1c(C)[nH]c(/C=C2\C(=O)Nc3ccc(-c4ccnn4-c4ccc(C#N)cc4)cc32)c1C` [Example 25], for which the IC50 in the assay on FaDu was 17.3 µM; in the assay on FaDu CSC, 4.96 µM.

For the compound `Cc1[nH]c(/C=C2\C(=O)Nc3ccc(-c4cnn(-c5ccccc5)c4C)cc32)c(C)c1C(=O)NCCN1CCCC1` [Example 28], the IC50 in the assay with FaDu is 5.79 µM; in the assay with FaDu CSC, 1.31 µM.

`Cc1[nH]c(/C=C2\C(=O)Nc3ccc(-c4cnn(-c5ccccn5)c4)cc32)c(C)c1C(=O)N1CCOCC1` [Example 30] came in with an IC50 with FaDu CSC of 8.94 µM.

For `CCN(CC)CCNC(=O)c1c(C)[nH]c(/C=C2\C(=O)Nc3ccc(-c4oc(-c5ccccc5)nc4C)cc32)c1C` [Example 34], in the assay with FaDu CSC, the IC50 was determined as 18.2 µM.

As to `CCN(CC)CCNC(=O)c1c(C)[nH]c(/C=C2\C(=O)Nc3ccc(-c4cnc(-c5ccccc5)[nH]4)cc32)c1C` [Example 41], the IC50 with ACHN was determined as 20.6 µM; in the assay with FaDu it was 5.34 µM.

Consider `CCN(CC)CCNC(=O)c1c(C)[nH]c(/C=C2\C(=O)Nc3ccc(C4CCN(c5ncccn5)CC4)cc32)c1C` [Example 43], for which the IC50 in the assay with FaDu worked out at 6.47 µM; in the assay on FaDu CSC, 18.8 µM.

Take `Cc1[nH]c(/C=C2\C(=O)Nc3ccc(-c4cnc(-c5ccccc5)[nH]4)cc32)c(C)c1C(=O)N1CCN(C)CC1` [Example 44]: the figures for the IC50 with FaDu and in the assay on FaDu CSC were 5.54 µM and 13.2 µM, respectively.

On to `CC(=O)N1CCC(N2CCC(c3ccc4c(c3)/C(=C/c3[nH]c(C)c(C(=O)N5CCN(C)CC5)c3C)C(=O)N4)CC2)CC1` [Example 46], for which the results for the IC50 in the assay on FaDu and in the assay with FaDu CSC were 23.2 µM and 15.6 µM, respectively.

With `CCN(CC)CCNC(=O)c1c(C)[nH]c(/C=C2\C(=O)Nc3ccc(-n4cc(-c5ccccc5)nn4)cc32)c1C` [Example 49], the IC50 with ACHN was 7.16 µM; with FaDu, 6.58 µM; in the assay with FaDu CSC, 3 µM.

As for `CCN(CC)CCNC(=O)c1c(C)[nH]c(/C=C2\C(=O)Nc3ccc(-c4nc(-c5ccccc5)n[nH]4)cc32)c1C` [Example 50], the IC50 in the assay on FaDu was 6.16 µM; in the assay on FaDu CSC it was 2.8 µM.

In the case of `CCN(CC)CCNC(=O)c1c(C)[nH]c(/C=C2\C(=O)Nc3ccc(-c4nnc(-c5ccccc5)o4)cc32)c1C` [Example 53], the values for the IC50 with FaDu and in the assay with FaDu CSC were 8.23 µM and 21.5 µM, respectively.

As for `CCN(CC)CCNC(=O)c1c(C)[nH]c(/C=C2\C(=O)Nc3ccc(-c4cnc(-c5ccccc5)s4)cc32)c1C` [Example 54], the IC50 with FaDu came out at 23.7 µM.

In the case of `Cc1ccc(-c2nc(-c3ccc4c(c3)/C(=C/c3[nH]c(C)c(C(=O)N5CCOCC5)c3C)C(=O)N4)cs2)cc1` [Example 105], the IC50 with FaDu was 3.05 µM.

Take `CCOC(=O)c1c(C)[nH]c(/C=C2\C(=O)Nc3ccc(-c4csc(-c5ccccc5)n4)cc32)c1C` [Example 108]: in the assay on FaDu CSC, the IC50 is 20.2 µM.

In the assay with FaDu CSC, `CCN(CC)CCNC(=O)c1c(C)[nH]c(/C=C2\C(=O)Nc3ncc(-c4csc(-c5ccccc5)n4)cc32)c1C` [Example 116] yielded an IC50 of 1.6 µM.

The compound `Cc1[nH]c(/C=C2\C(=O)Nc3ncc(-c4csc(-c5ccccc5)n4)cc32)c(C)c1C(=O)N1CCN(C)CC1` [Example 117] displayed an IC50 with FaDu of 39.2 µM.

For `CCN(CC)CCNC(=O)c1c(C)[nH]c(/C=C2\C(=O)Nc3cnc(-c4csc(-c5ccccc5)n4)cc32)c1C` [Example 120], the IC50 was 11.2 µM with FaDu and 4.75 µM in the assay on FaDu CSC.

In the assay on FaDu CSC, `CN1CCN(C(=O)c2ccc(/C=C3\C(=O)Nc4ccc(-c5csc(-c6ccccc6)n5)cc43)[nH]c2=O)CC1` [Example 122] displayed an IC50 of 23.2 µM.

In the assay with FaDu CSC, `O=C1Nc2ccc(-c3csc(-c4ccccc4)n3)cc2/C1=C/c1ccc(C(=O)NCCN2CCOCC2)c(=O)[nH]1` [Example 123] showed a 50% inhibitory concentration (IC50) of 33.7 µM.

In the case of `CCN(CC)CCNC(=O)c1c(C)[nH]c(/C=C2\C(=O)Nc3ccc(-c4csc(-c5ccccn5)n4)cc32)c1C` [Example 124], in the assay on FaDu, the IC50 was found to be 46.9 µM.

As for `CCN(CC)CCNC(=O)c1c(C)[nH]c(/C=C2\C(=O)Nc3ccc(-c4csc(-c5ccc(Br)cc5)n4)cc32)c1C` [Example 125], the IC50 amounted to 3.68 µM with FaDu and 1.33 µM with FaDu CSC.

As for `CCN(CC)CCNC(=O)c1c(C)[nH]c(/C=C2\C(=O)Nc3ccc(-c4csc(-c5cccc(Br)c5)n4)cc32)c1C` [Example 127], the IC50 with FaDu stood at 24.8 µM; in the assay on FaDu CSC, 7.82 µM.

Consider `CCN(CC)CCNC(=O)c1c(C)[nH]c(/C=C2\C(=O)Nc3ccc(-c4cs/c(=N\c5ccccc5)n4C)cc32)c1C` [Example 132], for which the IC50 turned out to be 5.35 µM with FaDu and 2.17 µM in the assay with FaDu CSC.

Consider `CCOC(=O)CCc1cccc(-c2nc(-c3ccc4c(c3)/C(=C/c3[nH]c(C)c(C(=O)NCCN(CC)CC)c3C)C(=O)N4)cs2)c1` [Example 134], for which the IC50 in the assay with FaDu CSC came to 2.34 µM.

Compound `CCOC(=O)CCc1ccc(-c2nc(-c3ccc4c(c3)/C(=C/c3[nH]c(C)c(C(=O)NCCN(CC)CC)c3C)C(=O)N4)cs2)cc1` [Example 136] yielded an IC50 in the assay on FaDu CSC of 2.52 µM.

With `Cc1cc(C)c(/C=C2\C(=O)Nc3ccc(-c4csc(-c5ccccc5)n4)cc32)[nH]1` [Example 138], the IC50 turned out to be 5.31 µM with ACHN, 7.87 µM in the assay with FaDu and 6.49 µM in the assay on FaDu CSC.

In the assay on FaDu CSC, `Cc1[nH]c(/C=C2\C(=O)Nc3ccc(-c4csc(C5CCNCC5)n4)cc32)c(C)c1C(=O)O` [Example 142] gave an IC50 of 5.62 µM.

The compound `Cc1[nH]c(/C=C2\C(=O)Nc3ccc(-c4csc(-c5ccncc5)n4)cc32)c(C)c1CCC(=O)O` [Example 154] had an IC50 in the assay with ACHN of 14.6 µM.

`O=C1Nc2ccc(-c3csc(-c4ccncc4)n3)cc2/C1=C/c1cc2ccccc2[nH]1` [Example 158]: in the assay with FaDu CSC, the IC50 is 3.07 µM.

For `O=C1Nc2ccc(-c3csc(-c4ccccc4)n3)cc2/C1=C/c1cc2ccccc2[nH]1` [Example 159], 49.3 µM corresponded to half-maximal inhibition in the assay with FaDu (IC50).

With `O=C1Nc2ccc(-c3csc(-c4ccccc4)n3)cc2/C1=C/c1[nH]c(C(=O)O)c2c1CCCC2` [Example 163], the IC50 in the assay on ACHN was 24.9 µM; in the assay on FaDu CSC, 4.49 µM.

In the assay with ACHN, `CCN(CC)CCNC(=O)c1[nH]c(/C=C2\C(=O)Nc3ccc(-c4csc(-c5ccccc5)n4)cc32)c2c1CCCC2` [Example 166] registered an IC50 of 9.91 µM.

Consider `O=C1Nc2ccc(-c3csc(-c4ccccc4)n3)cc2/C1=C/c1ccc(N2CCOCC2)cc1` [Example 172], for which, in the assay on FaDu, the IC50 stood at 35.5 µM.

In the assay with FaDu, `O=C1Nc2ccc(-c3csc(-c4ccncc4)n3)cc2/C1=C/c1ccc(N2CCOCC2)cc1` [Example 173] returned an IC50 of 17.5 µM.

For `Cc1cc(C)c(/C=C2\C(=O)Nc3ccc(-c4ccc5ccccc5n4)cc32)[nH]1` [Example 214], the IC50 in the assay on ACHN came to 7.44 µM. That is a single-digit micromolar value.

Compound `COc1cccnc1-c1ccc2c(c1)/C(=C/c1[nH]c(C)cc1C)C(=O)N2` [Example 222] showed an IC50 with FaDu of 33.2 µM.

Regarding `COc1ccc(-c2ccc3c(c2)/C(=C/c2[nH]c(C)cc2C)C(=O)N3)nc1` [Example 227], the IC50 with A549 turned out to be 0.07 µM.

The compound `Cc1cc(C)c(/C=C2\C(=O)Nc3cc(-c4ccc(-c5ccccc5)nc4)ccc32)[nH]1` [Example 241] displayed an IC50 in the assay with FaDu CSC of 18.2 µM.

On to `Cc1cc(C)c(/C=C2\C(=O)Nc3cc(-c4cnc5ccnn5c4)ccc32)[nH]1` [Example 243], for which, in the assay on FaDu CSC, 14.9 µM corresponded to half-maximal inhibition (IC50).

As to `Cc1cc(C)c(/C=C2\C(=O)Nc3cc(-c4cccc(C#N)c4C)ccc32)[nH]1` [Example 245], the IC50 with FaDu CSC turned out to be 39.1 µM.

In the case of `Cc1cc(C)c(/C=C2\C(=O)Nc3cc(-c4cnc5ccccn45)ccc32)[nH]1` [Example 247], the IC50 in the assay with ACHN is 20.6 µM; in the assay on FaDu it was 19.4 µM.

Take `Cc1cc(C)c(/C=C2\C(=O)Nc3cc(-c4ccc5ccccc5n4)ccc32)[nH]1` [Example 248]: in the assay with FaDu, the IC50 is 14 µM.

`CCN(CC)CCNC(=O)c1c(C)[nH]c(/C=C2\C(=O)Nc3cc(-c4ccc5cn[nH]c(=O)c5c4)ccc32)c1C` [Example 252] displayed an IC50 in the assay with FaDu of 23.9 µM.

`Cc1cc(C)c(/C=C2\C(=O)Nc3ccc(-c4ccc(C(=O)c5ccccc5)cc4)cc32)[nH]1` [Example 260]: the IC50 in the assay with ACHN turned out to be 21.8 µM; in the assay on FaDu it was 22.4 µM.

In the case of `COc1ccc(-c2ccc3c(c2)/C(=C/c2[nH]c(C)cc2C)C(=O)N3)c(C)c1` [Example 263], the results for the IC50 in the assay on ACHN and with FaDu were 24.8 µM and 19.8 µM, respectively.
